{"source": "patent US20020052295A1", "about": "“Diacyl derivatives of propylene diamine having herbicidal activity” (priority 1999, published 2002)", "key": {"ABUTH": {"test_system": "ABUTH", "experiment": "Pre-emergence herbicidal activity on ABUTH (velvetleaf)", "format": "in vivo, Abutilon theophrasti", "summary_of_the_method": "(§1)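 GR80 values come from percent inhibition relative to untreated plants, rated roughly 14 days after planting and treating, with rates up to typically 1000 g/ha. Compound was sprayed onto the soil over freshly covered seeds as a dilution in 50:50 acetone/water; pots kept in greenhouse at 30/21° C. day/night after 0.64 cm overhead watering.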"}, "SOLNI": {"test_system": "SOLNI", "experiment": "Pre-emergence herbicidal activity on SOLNI (black nightshade)", "format": "in vivo, Solanum nigrum", "summary_of_the_method": "as §1"}, "AMARE": {"test_system": "AMARE", "experiment": "Pre-emergence herbicidal activity on AMARE (redroot pigweed)", "format": "in vivo, Amaranthus retroflexus", "summary_of_the_method": "as §1"}, "DATST": {"test_system": "DATST", "experiment": "Pre-emergence herbicidal activity on DATST (jimsonweed)", "format": "in vivo, Datura stramonium", "summary_of_the_method": "as §1"}, "CHEAL": {"test_system": "CHEAL", "experiment": "Pre-emergence herbicidal activity on CHEAL (common lambsquarters)", "format": "in vivo, Chenopodium album", "summary_of_the_method": "as §1"}, "CONAR": {"test_system": "CONAR", "experiment": "Pre-emergence herbicidal activity on CONAR (field bindweed)", "format": "in vivo, Convolvulus arvensis", "summary_of_the_method": "as §1"}, "POROL": {"test_system": "POROL", "experiment": "Pre-emergence herbicidal activity on POROL (common purslane)", "format": "in vivo, Portulaca oleracea", "summary_of_the_method": "as §1"}, "CIRAR": {"test_system": "CIRAR", "experiment": "Pre-emergence herbicidal activity on CIRAR (canada thistle, seedling)", "format": "in vivo, Cirsium arvense", "summary_of_the_method": "as §1"}, "ECHCG": {"test_system": "ECHCG", "experiment": "Pre-emergence herbicidal activity on ECHCG (barnyardgrass)", "format": "in vivo, Echinochloa crus-galli", "details": "racemic mixture vs enantiomers test; rates tested 1000, 650, 300, 200, 100, 65, 30 and 10 g/ha; lowest rate with 80% or greater inhibition", "summary_of_the_method": "as §1"}, "PANMI": {"test_system": "PANMI", "experiment": "Pre-emergence herbicidal activity on PANMI (wild proso millet)", "format": "in vivo, Panicum miliaceum", "summary_of_the_method": "as §1"}, "SORHA": {"test_system": "SORHA", "experiment": "Pre-emergence herbicidal activity on SORHA (johnsongrass, seedling)", "format": "in vivo, Sorghum halepense", "summary_of_the_method": "as §1"}, "SETFA": {"test_system": "SETFA", "experiment": "Pre-emergence herbicidal activity on SETFA (giant foxtail)", "format": "in vivo, Setaria faberi", "summary_of_the_method": "as §1"}, "PANDI": {"test_system": "PANDI", "experiment": "Pre-emergence herbicidal activity on PANDI (fall panicum)", "format": "in vivo, Panicum dichotomiflorum", "summary_of_the_method": "as §1"}, "SORVU": {"test_system": "SORVU", "experiment": "Pre-emergence herbicidal activity on SORVU (shattercane)", "format": "in vivo, Sorghum vulgare", "details": "racemic mixture vs enantiomers test; rates tested 1000, 650, 300, 200, 100, 65, 30 and 10 g/ha; lowest rate with 80% or greater inhibition", "summary_of_the_method": "as §1"}, "BRAPP": {"test_system": "BRAPP", "experiment": "Pre-emergence herbicidal activity on BRAPP (broadleaf signalgrass)", "format": "in vivo, Brachiaria platyphylla", "summary_of_the_method": "as §1"}, "DIGSA": {"test_system": "DIGSA", "experiment": "Pre-emergence herbicidal activity on DIGSA (large crabgrass)", "format": "in vivo, Digitaria sanguinalis", "summary_of_the_method": "as §1"}, "dicotyledonous species": {"test_system": "dicotyledonous species", "experiment": "Pre-emergence test (later test), average GR80 on dicotyledonous species", "format": "in vivo", "details": "average over dicotyledonous species", "description": "(§2) All such uses, and the biological activity enabling such uses, are embraced by the term “herbicidal” herein. Tables 15 and 16 summarize results of tests conducted as described below to determine the pre-emergence herbicidal activity, in the form of a GR80 value, of illustrative compounds of this invention. […] Where herbicidal activity was evident but 80% inhibition was not achieved at the highest rate tested (typically 1000 g/ha), an asterisk (*) is shown in the following tables. Herbicidal activity evident in the form of symptoms of phytotoxicity, in the absence of at least 80% inhibition at any rate, is indicated in the tables by “phyto”. A blank cell in the following tables indicates no herbicidal or phytotoxic response at any rate tested.\n(§3) The pre-emergence tests were conducted by the following procedure. Topsoil was sieved to pass through a 1.27 cm screen. Fertilizer was added to the topsoil and the mixture was then sterilized by heating. The topsoil mixture was placed in a pot and compacted to a depth of 1.0 to 1.25 cm from the top of the pot. Seeds of each of several monocotyledonous and dicotyledonous annual plant species were placed on top of the soil. […]\n(§4) Approximately 14 days after planting and treating, the plants were observed and herbicidal efficacy recorded as percent inhibition by comparison with untreated plants. […]"}, "monocotyledonous species": {"test_system": "monocotyledonous species", "experiment": "Pre-emergence test (later test), GR80 on monocotyledonous species", "format": "in vivo", "details": "average over monocotyledonous species", "description": "as §2, §3, §4"}, "[1]": {"test_system": "monocotyledonous and dicotyledonous annual plant species", "experiment": "Greenhouse pre-emergence test, all species of the test taken together", "format": "in vivo", "description": "All such uses, and the biological activity enabling such uses, are embraced by the term “herbicidal” herein. […] Where herbicidal activity was evident but 80% inhibition was not achieved at the highest rate tested (typically 1000 g/ha), an asterisk (*) is shown in the following tables. Herbicidal activity evident in the form of symptoms of phytotoxicity, in the absence of at least 80% inhibition at any rate, is indicated in the tables by “phyto”. A blank cell in the following tables indicates no herbicidal or phytotoxic response at any rate tested.\nThe pre-emergence tests were conducted by the following procedure. Topsoil was sieved to pass through a 1.27 cm screen. Fertilizer was added to the topsoil and the mixture was then sterilized by heating. The topsoil mixture was placed in a pot and compacted to a depth of 1.0 to 1.25 cm from the top of the pot. Seeds of each of several monocotyledonous and dicotyledonous annual plant species were placed on top of the soil. Additional soil was subsequently placed over the seeds to level-fill the pot. A known amount of each test compound dissolved or suspended in an appropriate organic solvent was diluted with a 50:50 mix of acetone and water and applied to the surface of the soil. After treatment the plants were placed in a greenhouse with a 30/21° C. day/night temperature regime where they received 0.64 cm of overhead irrigation. All subsequent watering consisted of a light overhead mist and/or subirrigation as needed for germination and growth.\nPre-emergence herbicidal activity of the compound of Example 5, a racemic mixture of R- and S-enantiomers of N,N′-(1,2-propanediylbis)-3-(trifluoromethyl) benzamide, was compared with that of the individual R- and S-enantiomers, the compounds of Examples 5a and 5b respectively. The procedure was exactly as described above. Rates tested were 1000, 650, 300, 200, 100, 65, 30 and 10 g/ha.\nIn a greenhouse pre-emergence test conducted according to the procedure described hereinabove, R—N,N′-(1,2-propanediylbis)-3-(trifluoromethyl)benzamide (the compound of Example 5a) was applied at 200 g/ha and acetochlor was applied at 100 g/ha, both individually and in combination.\nIn the same greenhouse pre-emergence test, R-2-fluoro-3-trifluoromethyl-N-[1-methyl-2-(3-trifluoromethyl)phenylcarbonylamino]ethylbenzamide (the compound of Example 13) was applied at 100 g/ha and acetochlor was applied at 100 g/ha, both individually and in combination."}, "corn (maize)": {"test_system": "corn (maize)", "experiment": "Field trials, crop selectivity in corn", "format": "in vivo", "details": "pre-emergence rates giving acceptable weed control"}, "sorghum": {"test_system": "sorghum", "experiment": "Field trials, crop selectivity in sorghum", "format": "in vivo", "details": "pre-emergence rates giving acceptable weed control"}, "soybeans": {"test_system": "soybeans", "experiment": "Field trials, crop selectivity in soybeans", "format": "in vivo", "details": "pre-emergence rates giving acceptable weed control"}, "[2]": {"test_system": "several weed species, predominantly dicotyledonous species", "experiment": "Field trials, pre-emergence weed control", "format": "in vivo", "details": "pre-emergence application"}, "cotton": {"test_system": "cotton", "details": "field trials; pre-emergence"}, "rice": {"test_system": "rice", "details": "field trials; pre-emergence"}, "[3]": {"details": "pre-emergence application, Example 5a 200 g/ha alone"}, "[4]": {"details": "racemic mixture vs enantiomers test, rates tested 1000, 650, 300, 200, 100, 65, 30 and 10 g/ha, lowest rate with 80% or greater inhibition"}}}
{"smiles": "C[C@H](CNC(=O)c1cccc(C(F)(F)F)c1)NC(=O)c1cccc(C(F)(F)F)c1", "note": "[Example 5a, R—N,N′-(1,2-propanediylbis)-3-(trifluoromethyl)benzamide]", "values": [{"measurement": "Percent control ABUTH", "setting": "ABUTH; [3]", "value": 8, "unit": "%"}, {"measurement": "Pre-emergence activity (GR80) ABUTH", "setting": "ABUTH; [4]", "value": 650, "unit": "g/ha"}, {"measurement": "Percent control SOLNI", "setting": "SOLNI; [3]", "value": 100, "unit": "%"}, {"measurement": "Pre-emergence activity (GR80) SOLNI", "setting": "SOLNI; [4]", "value": 200, "unit": "g/ha"}, {"measurement": "Percent control AMARE", "setting": "AMARE; [3]", "value": 100, "unit": "%"}, {"measurement": "Pre-emergence activity (GR80) AMARE", "setting": "AMARE; [4]", "value": 30, "unit": "g/ha"}, {"measurement": "Percent control DATST", "setting": "DATST; [3]", "value": 41, "unit": "%"}, {"measurement": "Pre-emergence activity (GR80) DATST", "setting": "DATST; [4]", "value": 650, "unit": "g/ha"}, {"measurement": "Percent control CHEAL", "setting": "CHEAL; [3]", "value": 100, "unit": "%"}, {"measurement": "Pre-emergence activity (GR80) CHEAL", "setting": "CHEAL; [4]", "value": 65, "unit": "g/ha"}, {"measurement": "Percent control CONAR", "setting": "CONAR; [3]", "value": 22, "unit": "%"}, {"measurement": "Pre-emergence activity (GR80) CONAR", "setting": "CONAR; [4]", "value": "phyto"}, {"measurement": "Percent control POROL", "setting": "POROL; [3]", "value": 100, "unit": "%"}, {"measurement": "Pre-emergence activity (GR80) PORAL", "setting": "POROL; [4]", "value": 30, "unit": "g/ha"}, {"measurement": "Percent control CIRAR", "setting": "CIRAR; [3]", "value": 35, "unit": "%"}, {"measurement": "Pre-emergence activity (GR80) CIRAR", "setting": "CIRAR; [4]", "value": 1000, "unit": "g/ha"}, {"measurement": "Pre-emergence activity (GR80) ECHCG", "setting": "ECHCG", "value": "phyto"}, {"measurement": "Percent control PANMI", "setting": "PANMI; [3]", "value": 20, "unit": "%"}, {"measurement": "Pre-emergence activity (GR80) PANMI", "setting": "PANMI; [4]", "value": 300, "unit": "g/ha"}, {"measurement": "Percent control SORHA", "setting": "SORHA; [3]", "value": 30, "unit": "%"}, {"measurement": "Pre-emergence activity (GR80) SORHA", "setting": "SORHA; [4]", "value": "phyto"}, {"measurement": "Percent control SETFA", "setting": "SETFA; [3]", "value": 40, "unit": "%"}, {"measurement": "Pre-emergence activity (GR80) SETFA", "setting": "SETFA; [4]", "value": "phyto"}, {"measurement": "Percent control PANDI", "setting": "PANDI; [3]", "value": 55, "unit": "%"}, {"measurement": "Pre-emergence activity (GR80) PANDI", "setting": "PANDI; [4]", "value": 200, "unit": "g/ha"}, {"measurement": "Pre-emergence activity (GR80) SORVU", "setting": "SORVU", "value": "[empty]"}, {"measurement": "Percent control BRAPP", "setting": "BRAPP; [3]", "value": 15, "unit": "%"}, {"measurement": "Pre-emergence activity (GR80) BRAPP", "setting": "BRAPP; [4]", "value": "phyto"}, {"measurement": "Percent control DIGSA", "setting": "DIGSA; [3]", "value": 82, "unit": "%"}, {"measurement": "Pre-emergence activity (GR80) DIGSA", "setting": "DIGSA; [4]", "value": 65, "unit": "g/ha"}, {"measurement": "average pre-emergence GR80 on dicotyledonous species", "setting": "dicotyledonous species", "value": 235, "unit": "g/ha"}, {"measurement": "pre-emergence GR80 on monocotyledonous species", "setting": "monocotyledonous species", "value": 711, "unit": "g/ha"}, {"measurement": "herbicidal activity of the combination compared with expectation", "setting": "[1]; Example 5a 200 g/ha + acetochlor 100 g/ha, at least on ABUTH, DATST, SORHA and PANMI", "value": "greater than expected herbicidal activity"}, {"measurement": "number of the 14 species showing >85% control", "setting": "[1]; Example 5a 200 g/ha in combination with acetochlor 100 g/ha", "value": 11}, {"measurement": "number of the 14 species showing >85% control", "setting": "[1]; Example 5a alone at 200 g/ha", "value": 4}, {"measurement": "GR80 values relative to those of the racemic mixture", "setting": "[1]; typical over species of Tables 19 and 20", "value": "about one-half"}, {"measurement": "crop injury, corn (maize)", "setting": "corn (maize)", "value": "not injurious"}, {"measurement": "crop injury, sorghum", "setting": "sorghum", "value": "not injurious"}, {"measurement": "crop injury, soybeans", "setting": "soybeans", "value": "not injurious"}, {"measurement": "weed control in field trials", "setting": "[2]", "value": "acceptable control"}, {"measurement": "crop selectivity, cotton", "setting": "cotton", "value": "not to be adequately selective"}, {"measurement": "crop selectivity, rice", "setting": "rice", "value": "not to be adequately selective"}]}
